# Key:
# rat model of diabetes [1] = test: In-vivo screening: creatinine clearance in STZ-induced diabetic rats; conditions: b.i.d., 8 weeks, after 12 weeks of STZ diabetes, versus untreated diabetic group
# Experimental: (§1) The test compounds were studied for their beneficial effects on diabetic neuropathy and nephropathy in a rat model of diabetes. The rats were divided into three groups. The first group consisted of age matched untreated non-diabetic animals. The second group consisted of diabetic controls and the third group was the diabetic group treated with the test compound. Each treatment group had its own corresponding control and diabetic groups. The second and third groups were treated with Streptozotocin (STZ) at 60mg/kg for the induction of diabetes. After completion of 12 weeks of diabetes the rats were treated with the test compound daily (doses shown in table) for a period of 8 weeks. At the end of the treatment the creatinine clearances and nerve conduction velocities (NCV) of the animals were estimated. Creatinine clearances of the rats were estimated as follows Creatinine clearance =(Concentration of creatinine in the urine)/(Concentration of creatinine in the blood.)x ml urine passed/minute [formula]
# The creatinine clearance in untreated diabetic group was compared with the treated group and the percentage improvements are shown in the Table 3.
# AGE-BSA = molecular target: T1, AGE-BSA (Bos taurus, UniProt P02769); test: In-vitro screening for AGE-breaking activity (ELISA on 16 weeks AGE-BSA); type: biochemical, bovine; conditions: Concentration 5 mM; 10µg/ml 16 weeks AGE-BSA, 37°C, 24 hours
# T1 construct: Bovine serum albumin (fraction V) (BSA); from tissue; host or cells: bovine serum (fraction V albumin)
# T1 sequence (P02769 25-607): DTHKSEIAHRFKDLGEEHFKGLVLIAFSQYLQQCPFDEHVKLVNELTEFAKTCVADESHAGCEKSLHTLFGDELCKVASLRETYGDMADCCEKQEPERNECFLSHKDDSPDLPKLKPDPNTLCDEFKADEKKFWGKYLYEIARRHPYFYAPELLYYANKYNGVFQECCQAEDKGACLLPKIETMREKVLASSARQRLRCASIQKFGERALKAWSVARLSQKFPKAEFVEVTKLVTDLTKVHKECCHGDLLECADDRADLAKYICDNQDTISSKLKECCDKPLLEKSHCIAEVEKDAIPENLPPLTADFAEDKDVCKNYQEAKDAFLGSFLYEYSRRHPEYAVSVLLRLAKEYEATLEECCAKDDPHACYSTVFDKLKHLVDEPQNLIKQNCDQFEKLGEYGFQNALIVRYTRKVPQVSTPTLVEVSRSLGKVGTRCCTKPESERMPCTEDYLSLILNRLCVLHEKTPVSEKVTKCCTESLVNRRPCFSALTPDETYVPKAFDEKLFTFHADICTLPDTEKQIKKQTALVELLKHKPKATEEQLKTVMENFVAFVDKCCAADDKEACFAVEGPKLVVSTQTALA
# Experimental: • Materials: • Bovine serum albumin (fraction V) (BSA) • Glucose, analytical grade • Phosphate buffered saline (PBS) • Equipment: • Microplate ELISA Reader - Spectramax Plus (Molecular Devices, USA) • Microplate washer, (Bio -Tec Instruments, USA) • pH meter Methods of experiment: Elisa (Enzyme Linked Immunosorbent Assay) 160 mg/ml of protein, bovine serum albumin, BSA and 1.6M glucose sugar were dissolved in phosphate buffered saline, PBS. Sodium azide was added at 0.02% concentration as a preservative. The solution was filtered asceptically through a 0.22 µM filter and kept for aging at 37°C for 16 weeks. After 16 weeks the solution was dialyzed against PBS, aliquoted and stored at - 20°C.
# To determine the AGE breaking activity, 10µg/ml of the 16 weeks AGE-BSA was incubated with different concentrations of the test compounds at 37°C for 24 hours and AGE breaking activity of the test compounds by ELISA was determined. […] Different concentrations of 16 weeks AGE-BSA were coated on a microtitre plate as standard. Each concentration is coated in triplicates. • 2. The test samples were coated on microtitre plate at a concentration of 5 ng. to 20 ng per well in triplicates. • 3. The plate was incubated at 37°C for one hour. • 4. After incubation the plate was washed with PBST (PBS with 0.05% Tween 20). • 5. Blocking with 5% skimmed milk in PBS at 37°C for one hour was done. • 6. The plate was washed with PBST. • 7. Primary antibody against AGE-BSA was added and the plate is incubated at 37°C for one hour. • 8. The plate was washed with PBST • 9. Secondary antibody anti rabbit HRPO (Horse-Radish Per Oxidase) conjugate was added and the plate is incubated at 37°C for one hour. • 10. The plate was washed with PBST. • 11. Colour development with OPD (orthophenylenediamine dihydrochloride) and hydrogen peroxide was done. • 12. OD (optical density) at (450nm reading - 620nm reading) was measured after incubation at 37°C for 15 minutes with Microplate ELISA Reader.
# The breaker activity of the compounds were determined by the following formula: % Breaker activity =(OD450-620 Control - OD450-620 Test)/(OD450-620 Control)x 100 [formula]
# rat model of diabetes [2] = test: In-vivo screening: nerve conduction velocity in STZ-induced diabetic rats; conditions: b.i.d., 8 weeks, after 12 weeks of STZ diabetes
# Experimental: as §1, with “Creatinine clearances of the rats were estimated as follows Creatinine clearance =(Concentration of creatinine in the urine)/(Concentration of creatinine in the blood.)x ml urine passed/minute [formula]” left out
# The nerve conduction velocity was measured using a modified method of Biro et al 1998. […] Electromyograms (EMG's) recorded from the plantar muscles consisted of two components: (l) the short latency direct motor response (M) and the monosynaptically elicited long-latency sensory response (H, Hoffmann reflex). Latency and the duration of the M responses were measured and the motor nerve conduction velocity (MNCV) was calculated as follows : MNCV =(Distance between the sciatic and tibial stimulation points.)/(Differences of the latency for Msciatic and Mtibial) [formula] […]
smiles,measurement,setting,value
"O=C(NNC(=O)c1ccc[n+](CC(=O)c2cccs2)c1)c1ccc[n+](CC(=O)c2cccs2)c1 [Compound 15, N,N'-bis [3-carbonyl-1-(2-thien-2'-yl-2-oxoethyl)pyridinium] hydrazine dichloride]",% Increase in creatinine clearance,rat model of diabetes [1]; 7.5 mg/kg,103.0%
same,% breakage of AGE-BSA crosslinks at 5000 µM,AGE-BSA,20%
same,% Increase in the NCV,rat model of diabetes [2]; 7.5 mg/kg,60.0%
"O=C(C[n+]1cccc(C(=O)NNC(=O)c2ccc[n+](CC(=O)NC3CC3)c2)c1)NC1CC1 [Compound 21, N,N'-bis-[3-carbonyl-1-(2-cyclopropylamino-2-oxoethyl)pyridinium] hydrazine dichloride]",% Increase in creatinine clearance,rat model of diabetes [1]; 6.0 mg/kg,5.0%
same,% breakage of AGE-BSA crosslinks at 5000 µM,AGE-BSA,22.8%
same,% Increase in the NCV,rat model of diabetes [2]; 6.0 mg/kg,58.4%

# Reference: EP1243581A1, “Pyridinium compounds useful for the treatment of AGE-related diseases” (Torrent Pharmaceuticals Ltd, priority 2001, dated 2002)
